PMC9820303, “^αN-Acetyl β-Endorphin Is an Endogenous Ligand of σ1Rs That Regulates Mu-Opioid Receptor Signaling by Exchanging G Proteins for σ2Rs in σ1R Oligomers” (International Journal of Molecular Sciences, 2022)
No end group written: not given here.

Legend:
[1] = target: T1, σ1R-NR1 C1 (Mus musculus, UniProt O55242); test: In vitro σ1R-NR1 C1 association of recombinant proteins (Western blot); assay type: biochemical, murine; conditions: increasing concentrations; 30 min RT; vs control without ligand
T1 construct: The coding region of the full-length murine σ1R (AF004927); GST (N, cleaved yes); made in house; host or cells: E. coli BL21 (KRX)
T1 sequence (O55242 whole entry): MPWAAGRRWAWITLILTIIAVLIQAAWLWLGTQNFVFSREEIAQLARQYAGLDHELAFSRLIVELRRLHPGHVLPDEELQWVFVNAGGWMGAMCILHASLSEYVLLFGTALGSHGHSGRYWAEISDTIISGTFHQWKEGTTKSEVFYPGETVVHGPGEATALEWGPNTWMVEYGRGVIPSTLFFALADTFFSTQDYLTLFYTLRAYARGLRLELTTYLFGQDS
Protocol: (§1) Figure 7 Effect of β-End 1–31, ^αN-acetyl β-End 1–31 and their N-terminal derivatives on σ1R-σ2R, σ1R-NR1 C1 and σ1R-BiP associations. Amino acid sequence of β-End 1–31 showing derivatives 1–26 and 1–27. (A) HaloLink-attached σ2Rs were incubated for 30 min at RT in the presence of σ1Rs (100 nM) in 300 μL of 50 mM Tris-HCl (pH 7.4), 0.2% CHAPS, and 2.5 mM CaCl2. After removing the unbound σ1R proteins, the effects of increasing the peptide concentrations on σ1R-σ2R associations were studied. At the end of the incubation, protein complexes bound to HaloLink-σ2R were obtained by centrifugation, washed three times, solubilized in 2× Laemmli buffer containing β-mercaptoethanol, resolved by SDS-PAGE, and analyzed by Western blotting (for more details, see Section 4). This protocol was also used to assess the effect of ligands on (B) σ1R-NR1 C1 and (C) σ1R-BiP associations. Data were compared to that of the control, which was obtained in the absence of ligands. (A–C) Data are the mean ± SD, n = 3. (D) The β-End 1–31 structural models were predicted by Novafold (DNASTAR Lasergene protein v.17, Inc., Madison, WI, USA). Ribbon model: The 3D structure, charge distribution and hydrophobicity map of β-End 1–31 are shown. Positive charges are shown in red and negative charges in blue. Polar surfaces are shown in yellow, and nonpolar surfaces are shown in orange. Linear model: the opioid (1–5) and flexible region (8–11) sequences are shown in green and orange, respectively, and the amphiphilic helix (15–25) is shown in pink.
(§2) The recombinant σ1R (100 nM) was incubated either with Haloprotein (negative control) or together with the immobilized σ2R, NR1 C0-C1-C2 or BiP proteins in 300 µL of a buffer containing 50 mM Tris-HCl (pH 7.4) and 0.2% CHAPS in the presence of 2.5 mM CaCl2 for 30 min at RT. After removal of the unbound σ1R, the agarose-attached complexes were incubated for 30 min with rotation at RT in the presence of increasing concentrations of the ligands in a final reaction volume of 300 µL [50 mM Tris-HCl (pH 7.4), 2.5 mM CaCl2 and 0.2% CHAPS]. Ligands were usually dissolved in aqueous solutions; however, when an organic solvent such as DMSO was required to incorporate, e.g., pregnenolone sulfate, the solvent remained below 1% in the assay buffer. Agarose pellets containing the bound proteins were obtained by centrifugation, washed and resuspended thrice in the presence of 2.5 mM CaCl2, solubilized in 2× Laemmli buffer plus β-mercaptoethanol, and analyzed by Western blotting.
(§3) Because all the assays were performed with recombinant proteins, the immune signals provided a single band of the expected size, which was used for the subsequent densitometry analysis. Accordingly, no other regions of the blots provided information and were routinely excluded from the analysis.
Figure S8. Effect of the physiological and nonphysiological sequences of β-End 1-31 and classical σ1R ligands on BiP-σ1R, σ2R-σ1R and NR1 C1-σ1R associations . […]
D) Agarose-NR1 C1 loaded with […]
σ1Rs were incubated in the absence (control) and with nonphysiological derivatives of β-End 1-31. A-D) The σ1Rs that remained attached to the agarose complexes were evaluated by Western blotting. The […]
(§4) (1 picture or pasted object on this page, not shown here)
Figure S9. Effect of σ1R agonist/antagonist ligands on σ1R-NR1 C1 associations. Θ-Agarose-NR1 C1 was loaded with recombinant σ1Rs. After unbound σ1R proteins were removed, the complexes were incubated with (A) 1 nM β-End 1-31, (B) αN-acetyl β-End 1-31, (C-D) β-End 28-31 in the absence (black columns) and presence of (A) 10 nM or (B-D) increasing concentrations of competing σ1R ligands as indicated. The σ1Rs that remained attached to the Θ-σ2Rs were evaluated by Western blotting. The […]
Prog is progesterone; PregSulfate is pregnenolone sulfate; Nac is […]

[2] = target: σ1R-σ2R (Mus musculus, UniProt O55242); test: In vitro σ1R-σ2R association of recombinant proteins (HaloLink-σ2R, Western blot); assay type: biochemical, murine; design: The coding region of the full-length murine σ1R (AF004927); GST (N, cleaved yes); made in house; host or cells: E. coli BL21 (KRX); conditions: increasing concentrations; 30 min RT; vs control without ligand
σ1R-σ2R, sequence (O55242 whole entry): as above
Protocol: as §1, §2, §3
Figure S7. Effect of σ1R agonist/antagonist ligands on σ1R-σ2R heterodimers. (A-C) Agarose (Θ)- attached σ2Rs captured recombinant σ1Rs. After removing unbound σ1R proteins, the Θ-σ2R.σ1R complexes were incubated with a ﬁxed concentration of a selected L1 ligand (indicated in brackets) in the absence and presence of increasing concentrations of competing σ1R ligands as indicated. The σ1Rs that remained attached to the Θ-σ2Rs were evaluated by Western blotting. * Signiﬁcant differences with respect to the control group that was incubated without L1 ligands. ANOVA followed by the Holm-Sidak multiple comparisons test, p < 0.05. For details, see Methods and Figure 6A. Representative blots are […]
Figure S8. Effect of the physiological and nonphysiological sequences of β-End 1-31 and classical σ1R ligands on BiP-σ1R, σ2R-σ1R and NR1 C1-σ1R associations . Agarose-BiP was loaded with σ1Rs, and after the unbound σ1Rs were removed, the agarose-BiP-σ1R complexes were incubated in the absence (control) and presence of increasing concentrations of (A) β-End 1-31 C-terminal physiological derivatives and (B) classical σ1R ligands. C) Agarose-σ2R loaded with σ1Rs was incubated in the […]

[3] = target: T2, σ1R-BiP (Mus musculus, UniProt O55242); test: In vitro σ1R-BiP association of recombinant proteins (Western blot); assay type: biochemical; conditions: for effect on σ1R-BiP association: increasing concentrations, 30 min RT, vs control without ligand
T2 construct: The coding region of the full-length murine σ1R (AF004927); GST (N, cleaved yes); host or cells: E. coli BL21 (KRX) for σ1R
T2 sequence (O55242 whole entry): as above
Protocol: as §1, §2, §3
Figure S8. Effect of the physiological and nonphysiological sequences of β-End 1-31 and classical σ1R ligands on BiP-σ1R, σ2R-σ1R and NR1 C1-σ1R associations . Agarose-BiP was loaded with σ1Rs, and after the unbound σ1Rs were removed, the agarose-BiP-σ1R complexes were incubated in the absence (control) and presence of increasing concentrations of (A) β-End 1-31 C-terminal physiological derivatives and (B) classical σ1R ligands. C) Agarose-σ2R loaded with σ1Rs was incubated in the absence (control) and with nonphysiological derivatives of β-End 1-31. D) Agarose-NR1 C1 loaded with σ1Rs were incubated in the absence (control) and with nonphysiological derivatives of β-End 1-31. A-D) The σ1Rs that remained attached to the agarose complexes were evaluated by Western blotting. The […]
as §4
Figure S10. Effect of σ1R agonist/antagonist ligands on σ1R-BiP associations. Agarose-attached BiP proteins were incubated for 30 min in the presence of recombinant σ1R (100 nM) proteins in 300 μL of 50 mM Tris-HCl (pH 7.4), 0.2% CHAPS, and 2.5 mM CaCl2. After the unbound σ1R proteins were […]

Compound | effect on σ1R-NR1 C1 association [1] | effect on σ1R-σ2R association [2] | effect on σ1R-BiP association [3] | activity at σ1R-BiP against agonists / β-End 1–31 ([3]; 1 nM β-End 1–31 with increasing competitor (Figure S10))
CC(=O)[C@H]1CC[C@H]2[C@@H]3CCC4=CC(=O)CC[C@]4(C)[C@H]3CC[C@]12C [progesterone, Progesterone, reference compound] | did the opposite | did the opposite | did the opposite | 
Pregnenolone sulfate [reference compound] | increased σ1R-NR1 C1 complexes | impaired σ1R associations with σ2R and BiP | impaired σ1R associations with σ2R and BiP | 
^αN-acetyl β-End 1–26: ^αN-acetylated form of β-End 1–26 (Ac-YGGFMTSEKSQTPLVTLFKNAIIKNA; UniProt P01189 237-262, looked up, fragment) | separated σ1Rs from NR1 C1 subunits at pM concentrations |  | promoted σ1R-BiP complexes | antagonist activity
